Results taken from US20240262845A1, “PYRIDINIUM SALTS, METHODS OF MAKING, AND METHODS OF USE” (UNIVERSITY OF WYOMING, priority 2023, published 2024).
Structures can show the parent of a compound that is named as a salt.

Biological target: T1, lysozyme (Gallus gallus, UniProt P00698)
T1 construct: Lysozyme (from chicken egg white, >40,000 units/mg of protein); purchased Sigma Aldrich; host or cells: chicken egg white
Experiment: Photochemical labeling of lysozyme with pyridinium salts (General Procedure B, LC/MS)
Assay type: biochemical, chicken
Description: General Procedure B: Photochemical Irradiation of Peptides and Proteins: To a 2 mL Pyrex LC/MS vial (Thermo model #03-391-39) were sequentially added solutions containing the desired biomolecule, glutathione (GSH), pyridinium salt, and ammonium acetate (NH4OAc). The resulting solution was diluted to a final volume of 500 μL and then sparged using nitrogen for a minimum of 30 minutes prior to irradiation. The actively sparging solution was then placed in an EvoluChem™ PhotoRedOx Box photoreactor that was equipped with a Kessil, PR160 427 nm LED Lamp and was then irradiated (100% lamp intensity) for the designated time at room temperature while maintaining active sparging. The resultant reaction mixture was then analyzed directly by LC/MS. Analysis of labeling outcomes using LC/MS was performed either by extracted ion chromatogram intensities (method A) or by integrating the area under the peaks associated with peptide content (method B). These values were totaled, and estimated percentages were assigned according to relative intensities of peaks or ion counts.
Labeling of Lysozyme with Pyridinium Salt 2a (Lysozyme-2a Conjugate). Labeling of lysozyme (14.3 kDa) with the pyridinium salt 2a was performed by following general procedure B using the following solutions: lysozyme (27 μL, 182 μM, 10 μM final concentration), pyridinium salt 2a (200 μL, 500 μM, 200 μM final concentration), NH4OAc (100 μL, 100 mM, pH=6.9, 20 mM final concentration), glutathione (15 μL, 10 mM, 300 μM final concentration), and water (158 μL) with a 100% intensity irradiation time of 60 minutes. The reaction mixture was analyzed directly by LC/MS using method A and was estimated to have proceeded in >95% conversion and a 10.9:1 mono:di labeled ratio and 10% glutathionylation of all unlabeled and labeled protein content was observed.
Labeling of Lysozyme with Pyridinium Salt 2b (Lysozyme-2b Conjugate). Labeling of lysozyme (14.3 kDa) with the pyridinium salt 2b was performed by following general procedure Busing the following solutions: lysozyme (19 μL, 262 μM, […]), 2b (181 μL, 554 μM, 200 μM final concentration), NH4OAc (50 μL, 200 mM, pH=6.9, 20 mM final concentration), glutathione (50 μL, 3 mM, 300 μM final concentration), and water (200 μL) with a 100% intensity irradiation time of 10 minutes. The reaction mixture was analyzed directly by LC/MS using method A and was estimated to have proceeded with 83% conversion. […]
Labeling of Lysozyme with Pyridinium Salt 2c (Lysozyme-2c Conjugate). […] The reaction mixture was analyzed directly by LC/MS using method A and was estimated to have proceeded with 85% conversion and a 3.7:1 mono:di labeled ratio and 10% glutathionylation of all protein content was observed. […]

T1 sequence (P00698 19-147): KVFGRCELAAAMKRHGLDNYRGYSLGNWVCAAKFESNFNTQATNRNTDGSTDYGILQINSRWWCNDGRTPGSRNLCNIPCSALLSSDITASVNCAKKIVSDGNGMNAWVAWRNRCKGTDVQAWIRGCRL

Row | Structure (SMILES) | labeling rate compared to pyridinium salt 2a (lysozyme labeling) | Modified Trp (trypsin digest, MS-MS)
1 | COc1ccc2cc(-c3cc(C)[n+](N(C)C(=O)OCCCCC[C@H]4SC[C@H]5NC(=O)N[C@H]54)c(C)c3)ccc2c1 (stereo in doubt) [pyridinium salt 2b, 4-(6-methoxynaphthalen-2-yl)-2,6-dimethyl-1-(methyl(((5-((3aR,4R,6aS)-2-oxohexahydro-1H-thieno[3,4-d]imidazol-4-yl)pentyl)oxy)carbonyl)amino)pyridin-1-ium tetrafluoroborate] | much faster rate | 
2 | COC(=O)N(C)[n+]1c(C)cc(-c2ccc3cc(OC)ccc3c2)cc1C [pyridinium salt 2a, 1-((methoxycarbonyl)(methyl)amino)-4-(6-methoxynapthalen-2-yl)-2,6-dimethylpyridin-1-ium tetrafluoroborate] |  | Trp-62
